# Where two headings read alike, the source gives them in different places.
# What was measured:
# [1] = tested on: caspase-9; details: 5 μM, 24 h, MDA-MB-231 cells
# [2] = tested on: HeLa human epithelial cervix carcinoma cells; test: MTT cell viability, HeLa; assay type: cell-based; details: 72 h, mean ± SD
# Description: (§1) The six cell lines used in this work (MCF-7, MDA-MB-231, HeLa, […], MCF-10A and Hek-293) were purchased from American Type Culture Collection (ATCC, Manassas, VA, USA). MCF-7 human breast cancer cells, estrogen receptor (ER)-positive, were maintained in Dulbecco’s modified Eagle’s medium/nutrient mixture Ham F-12 (DMEM/F12), supplemented with 10% fetal bovine serum (FBS) and 100 U mL^−1 penicillin/streptomycin. MCF-10A human mammary epithelial cells, were cultured in DMEM/F12 medium, supplemented with 5% horse serum (HS, Thermo Fisher Scientific, Milan, Italy), 100 U mL^−1 penicillin/streptomycin, […] hydrocortisone, 20 ng mL^−1 human epidermal growth factor (hEGF), […] insulin, and […] cholera enterotoxin (Sigma–Aldrich, Milan, Italy). MDA-MB-231 human breast cancer cells, known as triple-negative cells (i.e., not overexpressing human epidermal growth factor receptor 2 (HER2), estrogen and progesterone receptors), were cultured in DMEM/F12 supplemented with 5% FBS, 1% L-glutamine and 100 U mL^−1 penicillin/streptomycin. HeLa human epithelial cervix carcinoma cells, estrogen receptor (ER)-negative, and […] human endometrial adenocarcinoma cells, estrogen receptor (ER)-positive, were maintained in minimum essential Eagle’s Medium (MEM), supplemented with 10% FBS, 1% L-glutamine, 100 U mL^−1 penicillin/streptomycin and 1% Non-Essential Amino Acids (NEAA). Hek-293 human embryonic kidney epithelial cells were cultured in DMEM high glucose (4.5 g L^−1), supplemented with 10% FBS, 1% L-glutamine and 100 U mL^–1 penicillin/streptomycin. Cells were maintained at 37 °C in a humidified atmosphere of 95% air and 5% CO2 and periodically screened for contamination.
# (§2) Cell viability has been determined using the 3-(4,5-dimethylthiazol-2-y1)-2,5-diphenyltetrazolium bromide (MTT, Sigma–Aldrich, Milan, Italy) assay. Cells have been seeded on 48-well plates and grown in complete medium. Before being treated, cells have been starved in serum free medium for 24 h for allowing cell cycle synchronization. […] Data are representative of three independent experiments; standard deviations (SD) have been shown.
# [3] = target: T1, human topoisomerase II (hTopo II) (Homo sapiens, UniProt P11388); test: Human topoisomerase II decatenation assay; assay type: biochemical; details: 1 μM
# T1 construct: purchased topoGEN, Port Orange, FL, USA
# T1 sequence (P11388 whole entry): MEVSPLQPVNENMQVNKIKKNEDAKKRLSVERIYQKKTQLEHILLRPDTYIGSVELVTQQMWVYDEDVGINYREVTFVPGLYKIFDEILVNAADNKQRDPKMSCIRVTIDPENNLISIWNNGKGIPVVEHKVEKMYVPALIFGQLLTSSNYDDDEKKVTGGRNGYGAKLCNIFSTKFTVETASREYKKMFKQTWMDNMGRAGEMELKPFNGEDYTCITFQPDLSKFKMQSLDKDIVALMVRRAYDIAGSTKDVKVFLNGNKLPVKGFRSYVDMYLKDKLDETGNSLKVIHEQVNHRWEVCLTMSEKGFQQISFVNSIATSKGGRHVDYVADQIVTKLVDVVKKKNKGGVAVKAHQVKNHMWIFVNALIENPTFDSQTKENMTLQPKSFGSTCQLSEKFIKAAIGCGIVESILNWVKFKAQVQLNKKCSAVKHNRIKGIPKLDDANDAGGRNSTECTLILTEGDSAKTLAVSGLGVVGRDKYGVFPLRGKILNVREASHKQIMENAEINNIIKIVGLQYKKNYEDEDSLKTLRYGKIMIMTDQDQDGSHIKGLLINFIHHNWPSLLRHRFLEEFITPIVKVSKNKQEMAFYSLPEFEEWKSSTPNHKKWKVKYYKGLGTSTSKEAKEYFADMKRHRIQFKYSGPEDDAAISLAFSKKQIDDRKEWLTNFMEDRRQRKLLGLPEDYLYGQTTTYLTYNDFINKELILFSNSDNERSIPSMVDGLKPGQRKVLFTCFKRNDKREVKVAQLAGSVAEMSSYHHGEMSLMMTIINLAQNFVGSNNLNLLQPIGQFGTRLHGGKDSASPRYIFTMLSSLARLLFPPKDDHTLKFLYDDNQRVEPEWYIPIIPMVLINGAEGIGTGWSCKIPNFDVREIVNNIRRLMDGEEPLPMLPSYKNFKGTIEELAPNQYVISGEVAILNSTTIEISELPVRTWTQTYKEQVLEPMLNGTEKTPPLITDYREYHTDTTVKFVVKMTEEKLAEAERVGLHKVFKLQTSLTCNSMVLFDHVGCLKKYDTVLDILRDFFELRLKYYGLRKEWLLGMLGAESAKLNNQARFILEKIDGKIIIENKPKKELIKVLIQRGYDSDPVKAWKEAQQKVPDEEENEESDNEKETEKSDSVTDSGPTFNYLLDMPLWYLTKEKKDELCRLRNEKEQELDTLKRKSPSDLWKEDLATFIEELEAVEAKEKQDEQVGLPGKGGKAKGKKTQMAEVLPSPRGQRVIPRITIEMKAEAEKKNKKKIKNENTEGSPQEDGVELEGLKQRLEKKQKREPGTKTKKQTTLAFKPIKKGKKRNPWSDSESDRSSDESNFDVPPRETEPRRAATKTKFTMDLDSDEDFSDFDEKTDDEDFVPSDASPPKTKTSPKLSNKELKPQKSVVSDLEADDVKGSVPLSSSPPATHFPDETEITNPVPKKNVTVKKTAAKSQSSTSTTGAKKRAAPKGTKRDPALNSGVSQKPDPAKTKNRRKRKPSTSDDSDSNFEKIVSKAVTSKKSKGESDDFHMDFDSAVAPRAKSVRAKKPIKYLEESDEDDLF
# Description: Decatenated and linear kDNA (Figure 8, lanes 1 and 2) are used as markers.
# hTopo II decatenation assays were performed in a final volume of […], as reported by Iacopetta et al., using […] of kinetoplast DNA (kDNA) (topoGEN, Port Orange, FL, USA), tested compounds and 3 units of hTopo II (topoGEN, Port Orange, FL, USA). The reaction products were loaded in an agarose gel with EB. At the end, the gel was washed with distilled water and analyzed using a UV transilluminator. The experiment was repeated three times.
# Lane 1 and 2, decatenated and linear kDNA, respectively.
# [4] = tested on: caspase-8; details: 5 μM, 24 h, MDA-MB-231 cells
# [5] = tested on: MDA-MB-231 human breast cancer cells; test: MTT cell viability, MDA-MB-231; assay type: cell-based; details: 72 h, mean ± SD
# Description: as §1, §2
# [6] = tested on: ISHIKAWA human endometrial adenocarcinoma cells; test: MTT cell viability, […]; assay type: cell-based; details: 72 h, mean ± SD
# Description: as §1, §2
# [7] = target: T2, human topoisomerase I (hTopo I) (Homo sapiens, UniProt P11387); test: Human topoisomerase I relaxation assay; assay type: biochemical; details: 1 μM
# T2 construct: purchased TopoGEN, Port Orange, FL, USA
# T2 sequence (P11387 1-765): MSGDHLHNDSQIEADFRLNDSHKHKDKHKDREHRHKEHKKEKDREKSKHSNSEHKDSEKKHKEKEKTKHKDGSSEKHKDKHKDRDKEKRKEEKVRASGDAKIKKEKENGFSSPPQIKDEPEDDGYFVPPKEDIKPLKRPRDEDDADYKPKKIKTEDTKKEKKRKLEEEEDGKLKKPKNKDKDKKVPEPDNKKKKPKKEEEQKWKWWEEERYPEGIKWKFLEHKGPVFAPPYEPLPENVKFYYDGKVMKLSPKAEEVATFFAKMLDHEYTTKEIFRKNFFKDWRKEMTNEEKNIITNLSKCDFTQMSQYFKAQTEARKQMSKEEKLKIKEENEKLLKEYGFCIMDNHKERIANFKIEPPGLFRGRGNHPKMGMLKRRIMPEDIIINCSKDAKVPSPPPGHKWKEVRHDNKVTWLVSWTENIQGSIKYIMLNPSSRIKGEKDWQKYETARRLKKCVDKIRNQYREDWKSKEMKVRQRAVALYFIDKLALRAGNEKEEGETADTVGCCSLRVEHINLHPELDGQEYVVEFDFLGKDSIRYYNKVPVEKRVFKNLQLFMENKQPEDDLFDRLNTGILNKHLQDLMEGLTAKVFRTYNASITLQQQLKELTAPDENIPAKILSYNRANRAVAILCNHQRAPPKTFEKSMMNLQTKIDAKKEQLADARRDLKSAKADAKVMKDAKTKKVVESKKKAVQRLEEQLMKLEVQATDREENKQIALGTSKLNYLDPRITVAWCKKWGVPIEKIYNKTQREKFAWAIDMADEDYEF
# Description: Topoisomerases are essential enzymes involved in DNA metabolism, because of their ability to cause temporary DNA strand breakage, and tightly involved, if overexpressed, in cancer development.
# hTopo I relaxation assays have been performed in a final volume of […], as reported by Iacopetta et al., incubating […] of supercoiled plasmid pHOT1 in Tris-EDTA (TE) buffer (TopoGEN, Port Orange, FL, USA) with tested compounds and recombinant hTopo I (2 units) (TopoGEN, Port Orange, FL, USA) for 1h at 37 °C. The obtained solution has been loaded in a 1% agarose gel containing 1× Tris-acetate-EDTA (TAE) buffer without ethidium bromide (EB). Agarose gel has been stained using 1× TAE buffer with EB ([…]) for 30 min and after washed with distilled water for 15 min. At the end, it has been visualized by using a ultraviolet (UV) transilluminator. The experiment was performed in triplicate.
# Figure 7 hTopoI assay.
# [8] = tested on: MDA-MB-231 cells; test: Muse cell cycle assay; details: at IC50, 72 h
# [9] = tested on: Hek-293 human embryonic kidney epithelial cells; test: MTT cell viability, normal Hek-293; assay type: cell-based
# Description: as §1, §2
smiles,measurement,setting,value
"C[n+]1c(Cl)c(Cl)n(CC(O)c2ccccc2)[c]1[Au-][c]1n(CC(O)c2ccccc2)c(Cl)c(Cl)[n+]1C.[Cl][Au-][Cl] (racemic) [AuL7, bis-[4,5-dichloro-(N-methyl-N’(2-hydroxy-2-phenyl)ethyl-imidazole-2-ylidene)gold(I)]^+[dichloro-gold]^−]",caspase-9 activity,[1],discrete increase
same,IC50,[2],31.9 ± 0.5 µM
same,inhibition of hTopo II decatenation activity,[3],total blockade of hTopoII activity
same,caspase-8 activity,[4],unchanged
same,IC50,[5],2.1 ± 0.7 µM
same,IC50,[6],29.9 ± 0.9 µM
same,inhibition of hTopo I supercoil relaxing activity,[7],totally inhibition
same,increase of the percentage of cells in G2/M phase vs DMSO control,[8],33.2%
same,increase of the percentage of cells in S phase vs DMSO control,[8],16.1%
same,IC50,"[9]; normal cells, MTT, 72 h, mean ± SD, read-out: IC50 Hek-293",65 µM
same,IC50,"[9]; read-out: IC50 Hek-293 of AuL7 after Quercetin pre-treatment, pre-treatment for 4 h with Quercetin (at 50 μM)",96.9 ± 1.1 µM

# Source: paper PMC7281280, “Is the Way to Fight Cancer Paved with Gold? Metal-Based Carbene Complexes with Multiple and Fascinating Biological Features” (Pharmaceuticals, 2020)
